What was measured:
[1] = system: Magnaporthe grisea (Pyricularia oryzae); assay: whole plant or invertebrate; assay type: in vivo, Magnaporthe grisea (Pyricularia oryzae) on M201 rice plants; details: for pest or weed control at 200 ppm: Pyricularia oryzae, 144 h, read-out: % Control RB
fungal inoculum = assay: organism not typed; assay type: cell-based
fungal mycelium = assay: organism not typed; assay type: cell-based; details: read-out: % growth inhibition

5-chloro-1-(2-pentyn-1-yl)-2-quinolinone [Compound 149]
% Control RB ([1]; 200 ppm, protectant): 100%
% growth inhibition (fungal inoculum): 51.5%

O=C1CCC(c2ccc(Cl)cc2)=NN1c1ccccc1 [Compound 14]
pest or weed control at 200 ppm [1]: 0%
inhibition at 50 ppm (fungal inoculum; read-out: % growth inhibition): 100%

CC#CCN1N=C(C=Cc2ccc(Cl)cc2)CCC1=O [Compound 24]
pest or weed control at 200 ppm [1]: 0%
inhibition at 200 ppm (fungal mycelium): 6.1%

CC#CCN1N=C(c2ccccc2)CC(c2ccccc2)C1=O (stereo not drawn) [Compound 30]
inhibition at 50 ppm (fungal inoculum; read-out: % growth inhibition): 41.2%

CC#CCN1N=C(c2ccc(C(F)(F)F)cc2)CCC1=O [Compound 42]
inhibition at 10 ppm (fungal inoculum; read-out: % growth inhibition): 91.7%

CCC#CCN1N=C(c2cc(Cl)c(C)c(Cl)c2)CCC1=O [Compound 44]
inhibition at 5 ppm (fungal inoculum; read-out: % growth inhibition): 87%

O=C(O)C#CCN1N=C(c2ccc(Cl)cc2)CCC1=O [Compound 54, 6-(4-chlorophenyl)-2-(3'-carboxy-2'-propynyl)-4,5-dihydropyridazinone]
pest or weed control at 200 ppm [1]: 0%
inhibition at 200 ppm (fungal mycelium): 71.4%

CC#CCN1N=C(c2ccc(Cl)c(C)c2)CCC1=O [Compound 63]
pest or weed control at 200 ppm [1]: 0%
inhibition at 200 ppm (fungal mycelium): 100%

CCC#CCN1N=C(c2ccc(C#N)cc2)CCC1=O [Compound 64]
pest or weed control at 200 ppm [1]: 0%
inhibition at 25 ppm (fungal mycelium): 100%

CCC#CCN1N=C(c2ccc([N+](=O)[O-])cc2)CCC1=O [Compound 65]
pest or weed control at 200 ppm [1]: 0%
inhibition at 50 ppm (fungal mycelium): 84%

CCC#CCN1N=C(c2ccc(OCC)cc2)CCC1=O [Compound 66]
pest or weed control at 200 ppm [1]: 0%
inhibition at 25 ppm (fungal mycelium): 100%

O=C1CCC(c2ccc(Cl)cc2)=NN1CC#Cc1cccs1 [Compound 67]
inhibition at 5 ppm (fungal inoculum; read-out: % growth inhibition): 83.6%

O=C1CCC(c2ccc(Cl)cc2)=NN1CC#Cc1ccc(Cl)cc1 [Compound 68]
inhibition at 5 ppm (fungal inoculum; read-out: % growth inhibition): 10.4%

O=C1CCC(c2ccc(Cl)cc2)=NN1CC=CBr [Compound 69]
inhibition at 50 ppm (fungal inoculum; read-out: % growth inhibition): 100%

CCC#CCN1N=C(c2ccc(Cl)c(F)c2)CCC1=O [Compound 74, 6-(4-chloro-3-fluorophenyl)-2-(2'-pentynyl)-4,5-dihydropyridazinone]
pest or weed control at 200 ppm [1]: 75%
inhibition at 1 ppm (fungal mycelium): 100%

O=C1CCC(c2ccc(Cl)cc2)=NN1CC=C(Br)CBr [Compound 75]
pest or weed control at 200 ppm [1]: 0%
inhibition at 100 ppm (fungal mycelium): 100%

CCC#CCN1N=C(c2ccc(OC)cc2)CCC1=O [Compound 81]
pest or weed control at 200 ppm [1]: 95%
inhibition at 2.5 ppm (fungal mycelium): 95.8%

CCC#CCN1N=C(c2ccc(F)cc2)CCC1=O [Compound 82]
pest or weed control at 200 ppm [1]: 0%
inhibition at 2.5 ppm (fungal mycelium): 100%

CC#CCN1N=C(c2ccc(Cl)c(F)c2)CCC1=O [Compound 83]
pest or weed control at 200 ppm [1]: 90%
inhibition at 0.5 ppm (fungal mycelium): 81.3%

CCCCCCCC#CCN1N=C(c2ccc(Cl)cc2)CCC1=O [Compound 85]
pest or weed control at 200 ppm [1]: 0%
inhibition at 100 ppm (fungal mycelium): 100%

C[Si](C)(C)C#CCN1N=C(c2ccc(Cl)cc2)CCC1=O [Compound 86]
pest or weed control at 200 ppm [1]: 0%
inhibition at 100 ppm (fungal mycelium): 80%

CCOC(C#CCN1N=C(c2ccc(Cl)cc2)CCC1=O)OCC [Compound 87, 6-(4-chlorophenyl)-2-(4'-aldehydo-2'-butynyl)-4,5-dihydropyridazinone, diethyl acetal]
pest or weed control at 200 ppm [1]: 75%
inhibition at 100 ppm (fungal mycelium): 100%

O=CC#CCN1N=C(c2ccc(Cl)cc2)CCC1=O [Compound 88, 6-(4-chlorophenyl)-2-(4-aldehydo-2'-butynyl)-4,5-dihydropyridazinone]
pest or weed control at 200 ppm [1]: 0%
inhibition at 100 ppm (fungal mycelium): 80%

CCC#CCN1N=C(c2ccc(Br)cc2)CCC1=O [Compound 91]
pest or weed control at 200 ppm [1]: 90%
inhibition at 1 ppm (fungal mycelium): 100%

C#CC#CCN1N=C(c2ccc(Cl)cc2)CCC1=O [Compound 93, 6-(4-chlorophenyl)-2-(2',4'-pentadiynyl)-4,5-dihydropyridazinone]
pest or weed control at 200 ppm [1]: 0%
inhibition at 0.5 ppm (fungal mycelium): 100%

O=C1CCC(c2ccc(Cl)cc2)=NN1CC#CC1CCCCC1 [Compound 94]
pest or weed control at 200 ppm [1]: 0%
inhibition at 10 ppm (fungal mycelium): 22.2%

O=C1CCC(c2ccc(Cl)cc2)=NN1CC#CCC1CCCCC1 [Compound 95]
pest or weed control at 200 ppm [1]: 0%
inhibition at 10 ppm (fungal mycelium): 22.2%

CCCCCC#CCN1N=C(c2ccc(Cl)cc2)CCC1=O [Compound 96]
pest or weed control at 200 ppm [1]: 0%
inhibition at 10 ppm (fungal mycelium): 94.5%

CCC#CCN1N=C(c2ccc(Cl)cc2OC)CCC1=O [Compound 99]
pest or weed control at 200 ppm [1]: 0%
inhibition at 1 ppm (fungal mycelium): 100%

CCC#CCN1N=C(c2ccc(Cl)cc2)C(F)(F)C(F)(F)C1=O [Compound 106]
pest or weed control at 200 ppm [1]: 0%
inhibition at 50 ppm (fungal mycelium): 81%

C#CCn1nc(-c2ccc(Cl)cc2)ccc1=O [Compound 118]
pest or weed control at 200 ppm [1]: 0%
inhibition at 200 ppm (fungal mycelium): 100%

CCC#CCn1nc(-c2ccc(Cl)cc2)c(F)c(F)c1=O [Compound 122, 6-(4-chlorophenyl)-4,5-difluoro-2-(2'-pentynyl)-pyridazinone]
pest or weed control at 200 ppm [1]: 0%
inhibition at 100 ppm (fungal mycelium): 84.6%

CCC#CCn1nc(-c2ccc(Cl)cc2)c(F)cc1=O [Compound 123]
pest or weed control at 200 ppm [1]: 99%
inhibition at 100 ppm (fungal mycelium): 100%

C#CC#CCn1nc(-c2ccc(Cl)cc2)ccc1=O [Compound 125]
pest or weed control at 200 ppm [1]: 0%
inhibition at 0.5 ppm (fungal mycelium): 89.5%

CC#CCN1N=C(c2ccncc2)CCC1=O [Compound 133]
pest or weed control at 200 ppm [1]: 0%
inhibition at 200 ppm (fungal mycelium): 67.4%

CCC#CCN1N=C2c3ccc(Cl)cc3CC2CC1=O (stereo not drawn) [Compound 143, 7-chloro-2,4,4a,5-tetrahydro-2-(2-pentyn-1-yl)-indeno[1,2-c]-pyridazin-3-one]
pest or weed control at 200 ppm [1]: 99%
inhibition at 1 ppm (fungal mycelium): 100%

CCC#CCN1N=C(c2cc3ccccc3s2)CCC1=O [Compound 144]
inhibition at 1 ppm (fungal inoculum; read-out: % growth inhibition): 100%

CCC#CCn1nc(-c2cc3ccccc3s2)ccc1=O [Compound 147]
inhibition at 50 ppm (fungal inoculum; read-out: % growth inhibition): 98.1%

CCC#CCSc1ccc(-c2ccc(Cl)cc2)nn1 [Compound 152, 6-(4-chlorophenyl)-3-(2-pentyn-1-thio)-pyridazine]
pest or weed control at 200 ppm [1]: 0%
inhibition at 10 ppm (fungal mycelium): 18.2%

CCC#CCN1N=C(c2ccc(Cl)cc2)CC=C1OC [Compound 158, 6-(4-chlorophenyl)-3-methoxy-2-(2'-pentyn-1-yl)-2,5-dihydropyridazine]
pest or weed control at 200 ppm [1]: 0%
inhibition at 10 ppm (fungal mycelium): 100%

CCC#CCn1nc(-c2csc3ccccc23)ccc1=O [Compound 236, 6-(3-thianaphthene)-2-(2'-pentynyl)-pyridazinone]
inhibition at 100 ppm (fungal mycelium): 100%

Cc1cc(C)n(C(=O)CN2N=C(c3ccc(Cl)cc3)CCC2=O)n1 [Compound 237, 6-(4-chlorophenyl)-2-(3,5-dimethyl-1-pyrazoylmethylene)-4,5-dihydropyridazinone]
inhibition at 100 ppm (fungal mycelium): 58%

O=C1CCC(c2ccc(Cl)cc2)=NN1Cc1n[nH]c(=O)o1 [Compound 238]
inhibition at 100 ppm (fungal mycelium): 31.6%

CCC#CCn1nc(CN2N=C(c3ccc(Cl)cc3)CCC2=O)oc1=O [Compound 239]
inhibition at 100 ppm (fungal mycelium): 100%

O=C(CN1N=C(c2ccc(Cl)cc2)CCC1=O)NN=Cc1cc(Cl)cc(Cl)c1O [Compound 240, 6-(4-chlorophenyl)-2-[N-acetylhydrazide-(N'-3,5-dichloro-2-hydroxy-phenylhydrazone)]-4,5-dihydropyridazinone]
inhibition at 100 ppm (fungal mycelium): 14%

O=C1CCC(c2ccc(Cl)cc2)=NN1Cc1nn(CC#CI)c(=O)o1 [Compound 241]
inhibition at 100 ppm (fungal mycelium): 100%
